# Reference: US6734196B2, “Substituted pyridine or piperidine compounds” (Les Laboratoires Servier, priority 1999, dated 2004)
row,SMILES,melting point [°C]
1,C[n+]1ccccc1C1CCCCC1=O.[I-] (centres unmarked),151 to 153
2,C[n+]1ccccc1CC(=O)c1cccc(Br)c1.[I-],217 to 218
3,C[n+]1ccccc1CC(=O)c1ccccc1Br.[I-],204 to 205
4,COc1ccc(C(=O)CC2CCCCN2C)cc1.I (centres unmarked),201 to 203
5,CN1CCCCC1CC(=O)c1ccc(Br)cc1.I (centres unmarked),182 to 184
6,CN1CCCCC1C1CCCCC1=O.I (centres unmarked),160 to 162
7,CN1CCCCC1CC(=O)c1cccc(Br)c1.I (centres unmarked),134 to 136
8,CN1CCCCC1CC(=O)c1ccccc1Br.I (centres unmarked),163.5 to 164
9,C[n+]1ccccc1C=C(c1ccccc1)N1CCCC1.[I-],200 to 202
10,C[n+]1c(C=C(c2ccccc2)N2CCOCC2)cccc1N1CCOCC1.[I-],214 to 216
11,C[n+]1c(CC(=O)c2ccccc2)cccc1CC(=O)c1ccccc1.[I-],197 to 199
12,COc1ccc(C(=O)Cc2cccc[n+]2C)cc1.F[P-](F)(F)(F)(F)F,168 to 170
13,Cc1ccc(C(=O)Cc2cccc(CC(=O)c3ccccc3)[n+]2C)cc1.[I-],205 to 206
14,C[n+]1c(CC(=O)c2ccccc2)cccc1CC(=O)c1ccc(Cl)cc1.O=S(=O)([O-])C(F)(F)F,199 to 201
15,C[n+]1c(CC(=O)c2ccccc2)cccc1CC(=O)c1ccc(Cl)cc1.[I-],213 to 215
16,C[n+]1c(CC(=O)c2ccccc2)cccc1CC(=O)c1ccc(F)cc1.[I-],220 to 222

row,SMILES,melting point [°C]
1,COc1ccc(C(=O)Cc2cccc[n+]2C)cc1.[I-],214 to 216
2,C[n+]1c(CC(=O)c2ccccc2)cccc1CC(=O)c1ccc(Br)cc1.[I-],218 to 220
3,C[n+]1c(CC(=O)c2ccc(Cl)cc2)cccc1CC(=O)c1ccc(Br)cc1.O=S(=O)([O-])C(F)(F)F,226 to 228
4,C[n+]1c(CC(=O)c2ccc(Cl)cc2)cccc1CC(=O)c1ccc(Br)cc1.[I-],226 to 227
5,COc1ccc(C(=O)Cc2cccc(CC(=O)c3ccccc3)[n+]2C)cc1.O=S(=O)([O-])C(F)(F)F,193 to 195
6,COc1ccc(C(=O)Cc2cccc(CC(=O)c3ccccc3)[n+]2C)cc1.[I-],203 to 205
7,COc1ccc(C(=O)Cc2cccc(CC(=O)c3ccc(F)cc3)[n+]2C)cc1.O=S(=O)([O-])C(F)(F)F,208 to 210
8,COc1ccc(C(=O)Cc2cccc(CC(=O)c3ccc(F)cc3)[n+]2C)cc1.[I-],219 to 220
9,C[n+]1ccccc1CC(=O)c1ccc(Cl)cc1.F[P-](F)(F)(F)(F)F,152 to 154
10,Cc1ccc(C(=O)CC2CCCC(CC(=O)c3ccccc3)N2C)cc1.I (centres unmarked),192 to 193
11,CN1C(CC(=O)c2ccccc2)CCCC1CC(=O)c1ccc(Cl)cc1.I (centres unmarked),152 to 154
12,CN1C(CC(=O)c2ccccc2)CCCC1CC(=O)c1ccc(F)cc1.I (centres unmarked),152 to 154
13,CN1C(CC(=O)c2ccc(Cl)cc2)CCCC1CC(=O)c1ccc(Br)cc1.I (centres unmarked),200 to 202
14,C[n+]1ccccc1CC(=O)c1ccc(Cl)cc1.[I-],212 to 214
15,C[n+]1ccccc1CC(=O)c1ccc(Br)cc1.F[P-](F)(F)(F)(F)F,185 to 187
16,C[n+]1ccccc1CC(=O)c1ccc(Br)cc1.[I-],222 to 224
